*1 amine or outer side, *2 acyl side, *3 side chain or, on linkers, in order; H or OH if unused. Where a SMILES comes first, the peptide text is derived from it. Bridges are numbered along the chain shown (N, C = ends). Roman numbers before positions name the chains, in order. Side-chain parts run from the residue outwards. [ ]: non-standard residue; d: D form. The star is where a group is joined. C18 diacid = O=C(O)CCCCCCCCCCCCCCCCC(=O)*; γGlu = O=C(O)[C@H](CCC(=O)[*:2])N[*:1]; Desaminohistidyl = O=C(CCc1c[nH]cn1)*; Ac4c = NC1(C(=O)O)CCC1; AEEA = NCCOCCOCC(=O)O; Aib = CC(C)(N)C(=O)O
target: T1, human GLP-1 receptor (Homo sapiens, UniProt P43220); experiment: Assay (II)(a): GLP-1 receptor binding, [125I]GLP-1 displacement, SPA on BHK membranes; conditions: displacement of [125I]GLP-1, membranes with human GLP-1 receptor; read-out: IC50 GLP-1R
T1 construct: expressed in transfected cells; host or cells: membranes of BHK cells, parent line BHKTS13, clone FCW467-12A
T1 sequence (P43220 24-463): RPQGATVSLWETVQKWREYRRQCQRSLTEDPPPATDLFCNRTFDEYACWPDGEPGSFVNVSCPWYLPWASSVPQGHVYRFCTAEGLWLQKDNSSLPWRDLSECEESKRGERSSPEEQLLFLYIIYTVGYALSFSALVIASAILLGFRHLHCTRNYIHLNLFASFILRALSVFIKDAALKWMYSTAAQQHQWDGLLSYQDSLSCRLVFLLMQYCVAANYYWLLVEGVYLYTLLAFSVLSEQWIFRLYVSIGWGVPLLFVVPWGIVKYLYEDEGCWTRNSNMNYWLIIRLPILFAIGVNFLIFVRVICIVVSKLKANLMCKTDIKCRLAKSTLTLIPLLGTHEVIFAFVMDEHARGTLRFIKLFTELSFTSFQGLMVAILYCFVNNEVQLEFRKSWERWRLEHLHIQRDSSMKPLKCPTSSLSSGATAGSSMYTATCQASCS
In short: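 Membranes from BHK cells expressing human GLP-1 receptor with WGA SPA beads, [125I]GLP-1(7-36)NH2 (480 pM added solution) and compound in HEPES pH 7.4 buffer with EGTA, MgCl2, Tween 20. Incubated 2 h at 30° C; SPA counts fitted by non-linear regression to IC50 in nM.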

Structure (SMILES)	IC50 [nM]
CC[C@H](C)[C@H](NC(=O)[C@H](Cc1ccccc1)NC(=O)[C@H](CCC(=O)O)NC(=O)[C@H](CCCNC(=N)N)NC(=O)[C@H](C)NC(=O)[C@H](C)NC(=O)[C@H](CCCNC(=N)N)NC(=O)CNC(=O)[C@H](CCC(=O)O)NC(=O)[C@H](CC(C)C)NC(=O)[C@H](Cc1ccc(O)cc1)NC(=O)[C@H](CCCCN)NC(=O)[C@H](CO)NC(=O)[C@@H](NC(=O)[C@H](CC(=O)O)NC(=O)[C@H](CO)NC(=O)[C@@H](NC(=O)[C@H](Cc1ccccc1)NC(=O)[C@@H](NC(=O)CNC(=O)[C@H](Cc1c[nH]cn1)NC(=O)[C@H](C)NC(=O)CCc1c[nH]cn1)[C@@H](C)O)[C@@H](C)O)C(C)C)C(=O)N[C@@H](C)C(=O)N[C@@H](Cc1c[nH]c2ccccc12)C(=O)N[C@@H](CC(C)C)C(=O)N[C@@H](CC(C)C)C(=O)N[C@@H](CCCCNC(=O)COCCOCCNC(=O)COCCOCCNC(=O)CC[C@H](NC(=O)CC[C@H](NC(=O)CC[C@H](NC(=O)CCCCCCCCCCCCCCCCC(=O)O)C(=O)O)C(=O)O)C(=O)O)C(=O)N[C@H](C(N)=O)[C@@H](C)O [Example 10, N^ε34-[2-[2-[2-[[2-[2-[2-[[(4S)-4-carboxy-4-[[(4S)-4-carboxy-4-[[(4S)-4-carboxy-4-(17-carboxyheptadecanoylamino)butanoyl]amino]butanoyl]amino]butanoyl]amino]ethoxy]ethoxy]acetyl]amino]ethoxy]ethoxy]acetyl]-[Imp7,His9,Lys18,Arg23,Arg26,Leu33,Thr35]-GLP-1-(7-35)-peptide amide] (Desaminohistidyl-AHGTFTSDVSKYLEGRAAREFIAWLLK([AEEA-AEEA-γGlu-γGlu-γGlu-C18 diacid])T-NH2)	1
CC[C@H](C)[C@H](NC(=O)[C@H](Cc1ccccc1)NC(=O)[C@H](CCC(=O)O)NC(=O)[C@H](CCCNC(=N)N)NC(=O)[C@H](C)NC(=O)[C@H](C)NC(=O)[C@H](CCCNC(=N)N)NC(=O)CNC(=O)[C@H](CCC(=O)O)NC(=O)[C@H](CC(C)C)NC(=O)[C@H](Cc1ccc(O)cc1)NC(=O)[C@H](CCCNC(=N)N)NC(=O)[C@H](CO)NC(=O)[C@@H](NC(=O)[C@H](CC(=O)O)NC(=O)[C@H](CO)NC(=O)[C@@H](NC(=O)[C@H](Cc1ccccc1)NC(=O)[C@@H](NC(=O)CNC(=O)[C@H](Cc1c[nH]cn1)NC(=O)C(C)(C)NC(=O)CCc1c[nH]cn1)[C@@H](C)O)[C@@H](C)O)C(C)C)C(=O)N[C@@H](C)C(=O)N[C@@H](Cc1c[nH]c2ccccc12)C(=O)N[C@@H](CC(C)C)C(=O)N[C@@H](CC(C)C)C(=O)N[C@@H](CCCCNC(=O)CC[C@H](NC(=O)CC[C@H](NC(=O)COCCOCCNC(=O)CC[C@H](NC(=O)CC[C@H](NC(=O)CCCCCCCCCCCCCCCCC(=O)O)C(=O)O)C(=O)O)C(=O)O)C(=O)O)C(=O)NCC(=O)N[C@@H](C)C(=O)NCC(=O)O [Example 35, N^ε34-[(4S)-4-carboxy-4-[[(4S)-4-carboxy-4-[[2-[2-[2-[[(4S)-4-carboxy-4-[[(4S)-4-carboxy-4-(17-carboxyheptadecanoylamino)butanoyl]amino]butanoyl]amino]ethoxy]ethoxy]acetyl]amino]butanoyl]amino]butanoyl]-[Imp7,Aib8,His9,Arg18,Arg23,Arg26,Leu33,Ala36]-GLP-1-(7-37)-peptide] (Desaminohistidyl-[Aib]HGTFTSDVSRYLEGRAAREFIAWLLK([γGlu-γGlu-AEEA-γGlu-γGlu-C18 diacid])GAG-OH)	1
CC[C@H](C)[C@H](NC(=O)[C@H](Cc1ccccc1)NC(=O)[C@H](CCC(=O)O)NC(=O)[C@H](CCCNC(=N)N)NC(=O)[C@H](C)NC(=O)[C@H](C)NC(=O)[C@H](CCC(N)=O)NC(=O)[C@H](CCC(=O)O)NC(=O)[C@H](CCC(=O)O)NC(=O)[C@H](CC(C)C)NC(=O)[C@H](Cc1ccc(O)cc1)NC(=O)[C@H](CCCCN)NC(=O)[C@H](CO)NC(=O)[C@@H](NC(=O)[C@H](CC(=O)O)NC(=O)[C@H](CO)NC(=O)[C@@H](NC(=O)[C@H](Cc1ccccc1)NC(=O)[C@@H](NC(=O)CNC(=O)[C@H](Cc1c[nH]cn1)NC(=O)C1(NC(=O)CCc2c[nH]cn2)CCC1)[C@@H](C)O)[C@@H](C)O)C(C)C)C(=O)N[C@@H](C)C(=O)N[C@@H](Cc1c[nH]c2ccccc12)C(=O)N[C@@H](CC(C)C)C(=O)N[C@@H](CC(C)C)C(=O)N[C@@H](CCCCNC(=O)CNC(=O)[C@H](CO)NC(=O)[C@H](CCC(=O)O)NC(=O)CNC(=O)[C@H](CO)NC(=O)CC[C@H](NC(=O)CC[C@H](NC(=O)CCCCCCCCCCCCCCCCC(=O)O)C(=O)O)C(=O)O)C(=O)N[C@H](C(N)=O)[C@@H](C)O [Example 9, N^ε34-[2-[[(2S)-2-[[(2S)-4-carboxy-2-[[2-[[(2S)-2-[[(4S)-4-carboxy-4-[[(4S)-4-carboxy-4-(17-carboxyheptadecanoylamino)butanoyl]amino]butanoyl]amino]-3-hydroxypropanoyl]amino]acetyl]amino]butanoyl]amino]-3-hydroxypropanoyl]amino]acetyl]-[Imp7,Acb8,His9,Lys18,Glu22,Arg26,Leu33,Thr35]-GLP-1-(7-35)-peptide amide] (I: Desaminohistidyl-[Ac4c]HGTFTSDVSKYLEEQAAREFIAWLLKT-NH2 / II: {C18 diacid-γGlu-γGlu}-SGESG; amide I:27-II:C)	0.1
CC[C@H](C)[C@H](NC(=O)[C@H](Cc1ccccc1)NC(=O)[C@H](CCC(=O)O)NC(=O)[C@H](CCCNC(=N)N)NC(=O)[C@H](C)NC(=O)[C@H](C)NC(=O)[C@H](CCC(N)=O)NC(=O)[C@H](CCC(=O)O)NC(=O)[C@H](CCC(=O)O)NC(=O)[C@H](CC(C)C)NC(=O)[C@H](Cc1ccc(O)cc1)NC(=O)[C@H](CCCCN)NC(=O)[C@H](CO)NC(=O)[C@@H](NC(=O)[C@H](CC(=O)O)NC(=O)[C@H](CO)NC(=O)[C@@H](NC(=O)[C@H](Cc1ccccc1)NC(=O)[C@@H](NC(=O)CNC(=O)[C@H](Cc1c[nH]cn1)NC(=O)C(C)(C)NC(=O)CCc1c[nH]cn1)[C@@H](C)O)[C@@H](C)O)C(C)C)C(=O)N[C@@H](C)C(=O)N[C@@H](Cc1c[nH]c2ccccc12)C(=O)N[C@@H](CC(C)C)C(=O)N[C@@H](CC(C)C)C(=O)N[C@@H](CCCCNC(=O)CNC(=O)[C@H](CO)NC(=O)[C@H](CCC(=O)O)NC(=O)CNC(=O)[C@H](CO)NC(=O)CC[C@H](NC(=O)CC[C@H](NC(=O)CCCCCCCCCCCCCCCCC(=O)O)C(=O)O)C(=O)O)C(=O)N[C@H](C(N)=O)[C@@H](C)O [Example 3, N^ε34-[2-[[(2S)-2-[[(2S)-4-carboxy-2-[[2-[[(2S)-2-[[(4S)-4-carboxy-4-[[(4S)-4-carboxy-4-(17-carboxyheptadecanoylamino)butanoyl]amino]butanoyl]amino]-3-hydroxypropanoyl]amino]acetyl]amino]butanoyl]amino]-3-hydroxypropanoyl]amino]acetyl]-[Imp7,Aib8,His9,Lys18,Glu22,Arg26,Leu33,Thr35]-GLP-1-(7-35)-peptide amide] (I: Desaminohistidyl-[Aib]HGTFTSDVSKYLEEQAAREFIAWLLKT-NH2 / II: {C18 diacid-γGlu-γGlu}-SGESG; amide I:27-II:C)	0.4

Other lines, results leading:

IC50 [nM]	Structure (SMILES)
0.9	CC[C@H](C)[C@H](NC(=O)[C@H](Cc1ccccc1)NC(=O)[C@H](CCC(=O)O)NC(=O)[C@H](CCCNC(=N)N)NC(=O)[C@H](C)NC(=O)[C@H](C)NC(=O)[C@H](CCC(N)=O)NC(=O)CNC(=O)[C@H](CCC(=O)O)NC(=O)[C@H](CC(C)C)NC(=O)[C@H](Cc1ccc(O)cc1)NC(=O)[C@H](CCCNC(=N)N)NC(=O)[C@H](CO)NC(=O)[C@@H](NC(=O)[C@H](CC(=O)O)NC(=O)[C@H](CO)NC(=O)[C@@H](NC(=O)[C@H](Cc1ccccc1)NC(=O)[C@@H](NC(=O)CNC(=O)[C@H](Cc1c[nH]cn1)NC(=O)C(C)(C)NC(=O)CCc1c[nH]cn1)[C@@H](C)O)[C@@H](C)O)C(C)C)C(=O)N[C@@H](C)C(=O)N[C@@H](Cc1c[nH]c2ccccc12)C(=O)N[C@@H](CC(C)C)C(=O)N[C@@H](CC(C)C)C(=O)N[C@@H](CCCCNC(=O)CNC(=O)[C@H](CO)NC(=O)[C@H](CCC(=O)O)NC(=O)CNC(=O)[C@H](CO)NC(=O)CC[C@H](NC(=O)CC[C@H](NC(=O)CCCCCCCCCCCCCCCCC(=O)O)C(=O)O)C(=O)O)C(=O)N[C@H](C(N)=O)[C@@H](C)O [Example 8, N^ε34-[2-[[(2S)-2-[[(2S)-4-carboxy-2-[[2-[[(2S)-2-[[(4S)-4-carboxy-4-[[(4S)-4-carboxy-4-(17-carboxyheptadecanoylamino)butanoyl]amino]butanoyl]amino]-3-hydroxypropanoyl]amino]acetyl]amino]butanoyl]amino]-3-hydroxypropanoyl]amino]acetyl]-[Imp7,Aib8,His9,Arg18,Arg26,Leu33,Thr35]-GLP-1-(7-35)-peptide amide] (I: Desaminohistidyl-[Aib]HGTFTSDVSRYLEGQAAREFIAWLLKT-NH2 / II: {C18 diacid-γGlu-γGlu}-SGESG; amide I:27-II:C)
0.7	CC[C@H](C)[C@H](NC(=O)[C@H](Cc1ccccc1)NC(=O)[C@H](CCC(=O)O)NC(=O)[C@H](CCCNC(=N)N)NC(=O)[C@H](C)NC(=O)[C@H](C)NC(=O)[C@H](CCC(N)=O)NC(=O)[C@H](CCC(=O)O)NC(=O)[C@H](CCC(=O)O)NC(=O)[C@H](CC(C)C)NC(=O)[C@H](Cc1ccc(O)cc1)NC(=O)[C@H](CCCCN)NC(=O)[C@H](CO)NC(=O)[C@@H](NC(=O)[C@H](CC(=O)O)NC(=O)[C@H](CO)NC(=O)[C@@H](NC(=O)[C@H](Cc1ccccc1)NC(=O)[C@@H](NC(=O)CNC(=O)[C@H](Cc1c[nH]cn1)NC(=O)C(C)(C)NC(=O)CCc1c[nH]cn1)[C@@H](C)O)[C@@H](C)O)C(C)C)C(=O)N[C@@H](C)C(=O)N[C@@H](Cc1c[nH]c2ccccc12)C(=O)N[C@@H](CC(C)C)C(=O)N[C@@H](CC(C)C)C(=O)N[C@@H](CCCCNC(=O)COCCOCCNC(=O)COCCOCCNC(=O)CC[C@H](NC(=O)CCCCCCCCCCCCCCCCC(=O)O)C(=O)O)C(=O)N[C@H](C(N)=O)[C@@H](C)O [Example 12, N^ε34-[2-[2-[2-[[2-[2-[2-[[(4S)-4-carboxy-4-(17-carboxyheptadecanoylamino)butanoyl]amino]ethoxy]ethoxy]acetyl]amino]ethoxy]ethoxy]acetyl]-[Imp7,Aib8,His9,Lys18,Glu22,Arg26,Leu33,Thr35]-GLP-1-(7-35)-peptide amide] (Desaminohistidyl-[Aib]HGTFTSDVSKYLEEQAAREFIAWLLK([AEEA-AEEA-γGlu-C18 diacid])T-NH2)

Source: patent US9988430B2, “Stable GLP-1 based GLP-1/glucagon receptor co-agonists” (Novo Nordisk A/S, priority 2014, dated 2018)
